Laboratory results: patent EP0908457B1, “3-(1,2-benzisothiazol- and isoxazol-5-Y1)-2,4(1H,3H)-pyrimidinedione or thione and 3-(1,2-benzisothiazol- and isoxazol-5-y1)-4(3H)-pyrimidinone or thione herbicidal agents” (BASF AKTIENGESELLSCHAFT, priority 1997, dated 1999)

Assays:
[1] = test system: Echinochloa oryzoides (Ard.) Fritsch.; assay: Preemergence weed control under flooded paddy conditions, ECHORC (Watergrass (Calif.)); assay type: in vivo; details: preemergence, flooded paddy, rated 3-4 weeks after treatment
Cyperus iria = assay: Preemergence weed control under flooded paddy conditions, CYPIR (Rice Flatsedge); assay type: in vivo; details: preemergence, flooded paddy, rated 3-4 weeks after treatment
[2] = test system: Cyperus serotinus, Rottb.; assay: Preemergence weed control under flooded paddy conditions, CYPSE (Flatsedge); assay type: in vivo; details: preemergence, rated 3-4 weeks after treatment
[3] = test system: Monochoria vaginalis, Presl.; assay: Preemergence weed control under flooded paddy conditions, MOOVA (Monochoria); assay type: in vivo; details: preemergence, flooded paddy, rated 3-4 weeks after treatment
Sagittaria pygmaea, L. = assay: Preemergence weed control under flooded paddy conditions, SAGPY (Arrowhead (Pygmaea)); assay type: in vivo; details: preemergence, flooded paddy, rated 3-4 weeks after treatment
[4] = test system: Oryza sativa, (L.) Tebonnet; assay: Rice tolerance to post-transplant applications under flooded paddy conditions (Example 187), ORYSAT (Rice, Tebonnet); details: rated 3-4 weeks after treatment
Also: meaning of each grade not given here.

Compound	herbicidal effect rating, ECHORC ([1]; Rate 0.0620 kg/ha)	herbicidal effect rating, ECHORC ([1]; Rate 0.1250 kg/ha)	herbicidal effect rating, ECHORC ([1]; Rate 0.2500 kg/ha)	herbicidal effect rating, ECHORC ([1]; Rate 0.5000 kg/ha)	herbicidal effect rating, CYPIR (Cyperus iria; Rate 0.0620 kg/ha)	herbicidal effect rating, CYPIR (Cyperus iria; Rate 0.1250 kg/ha)	herbicidal effect rating, CYPIR (Cyperus iria; Rate 0.2500 kg/ha)	herbicidal effect rating, CYPIR (Cyperus iria; Rate 0.5000 kg/ha)	herbicidal effect rating, CYPSE ([2]; Rate 0.0620 kg/ha)	herbicidal effect rating, CYPSE ([2]; Rate 0.1250 kg/ha)	herbicidal effect rating, CYPSE ([2]; Rate 0.5000 kg/ha)	herbicidal effect rating, MOOVA ([3]; Rate 0.0620 kg/ha)	herbicidal effect rating, MOOVA ([3]; Rate 0.1250 kg/ha)	herbicidal effect rating, MOOVA ([3]; Rate 0.2500 kg/ha)	herbicidal effect rating, MOOVA ([3]; Rate 0.5000 kg/ha)	herbicidal effect rating, SAGPY (Sagittaria pygmaea, L.; Rate 0.0620 kg/ha)	herbicidal effect rating, SAGPY (Sagittaria pygmaea, L.; Rate 0.1250 kg/ha)	herbicidal effect rating, SAGPY (Sagittaria pygmaea, L.; Rate 0.2500 kg/ha)	herbicidal effect rating, SAGPY (Sagittaria pygmaea, L.; Rate 0.5000 kg/ha)	herbicidal effect rating ORYSAT ([4]; Rate 0.0620 kg/ha)	other results
Cc1ccc(OCC(=O)c2ccc(Cl)cc2)c(-c2nsc3ccc(-n4c(=O)cc(C(F)(F)F)n(C)c4=O)cc23)c1 [Example 538, 2,4(1H,3H)-Pyrimidinedione, 3-{3-{6-[(p-chlorophenacyl)oxy]-m-tolyl}-1,2-benzisothiazol-5-yl}-1-methyl-6-(trifluoromethyl)-]	3.4	4.7	9.0	9.0	0.0	0.0	0.0	9.0	0.0	0.0	0.0	9.0	9.0	9.0	9.0	0.0	0.0	0.0	0.0	0.0	herbicidal effect rating, ECHORC ([1]; Rate 0.0320 kg/ha): 2.1; herbicidal effect rating, CYPIR (Cyperus iria; Rate 0.0320 kg/ha): 0.0; herbicidal effect rating, CYPSE ([2]; Rate 0.0320 kg/ha): 0.0; herbicidal effect rating, CYPSE ([2]; Rate 0.2500 kg/ha): 0.0; herbicidal effect rating, MOOVA ([3]; Rate 0.0320 kg/ha): 9.0; herbicidal effect rating, SAGPY (Sagittaria pygmaea, L.; Rate 0.0320 kg/ha): 0.0; herbicidal effect rating ORYSAT ([4]; Rate 0.0320 kg/ha): 0.0; herbicidal effect rating ORYSAT ([4]; Rate 0.1250 kg/ha): 1.0; herbicidal effect rating ORYSAT ([4]; Rate 0.2500 kg/ha): 1.0; herbicidal effect rating ORYSAT ([4]; Rate 0.5000 kg/ha): 1.0
Cc1ccc(OCC(N)=O)c(-c2nsc3ccc(-n4c(=O)cc(C(F)(F)F)n(C)c4=O)cc23)c1 [Example 539, Acetamide, 2-{{2-{5-[3,6-dihydro-3-methyl-2,6-dioxo-4-(trifluoromethyl)-1(2H)-pyrimidinyl]-1,2-benzisothiazol-3-yl}-p-tolyl}oxy}-]	3.0	4.7	7.0	9.0	2.0	6.0	8.0	9.0	0.0	0.0	2.0	9.0	9.0	9.0	9.0	0.0	1.0	4.0	9.0	1.0	herbicidal effect rating, ECHORC ([1]; Rate 0.0320 kg/ha): 2.1; herbicidal effect rating, CYPIR (Cyperus iria; Rate 0.0320 kg/ha): 0.0; herbicidal effect rating, CYPSE ([2]; Rate 0.0320 kg/ha): 0.0; herbicidal effect rating, CYPSE ([2]; Rate 0.2500 kg/ha): 0.0; herbicidal effect rating, MOOVA ([3]; Rate 0.0320 kg/ha): 8.0; herbicidal effect rating, SAGPY (Sagittaria pygmaea, L.; Rate 0.0320 kg/ha): 0.0; herbicidal effect rating ORYSAT ([4]; Rate 0.0320 kg/ha): 0.0; herbicidal effect rating ORYSAT ([4]; Rate 0.1250 kg/ha): 1.0; herbicidal effect rating ORYSAT ([4]; Rate 0.2500 kg/ha): 1.0; herbicidal effect rating ORYSAT ([4]; Rate 0.5000 kg/ha): 5.0
Cc1ccc(OCC(=O)C(C)(C)C)c(-c2nsc3ccc(-n4c(=O)cc(C(F)(F)F)n(C)c4=O)cc23)c1 [Example 540, 2,4(1H,3H)-Pyrimidinedione, 3-{3-[6-(3,3-dimethyl-2-oxobutoxy)-m-tolyl]-1,2-benzisothiazol-5-yl}-1-methyl-6-(trifluoromethyl)-]	3.4	4.7	9.0	9.0	8.0	9.0	9.0	9.0	0.0	0.0	3.0	9.0	9.0	9.0	9.0	0.0	0.0	0.0	0.0	0.0	herbicidal effect rating, ECHORC ([1]; Rate 0.0320 kg/ha): 2.3; herbicidal effect rating, CYPIR (Cyperus iria; Rate 0.0320 kg/ha): 6.0; herbicidal effect rating, CYPSE ([2]; Rate 0.0320 kg/ha): 0.0; herbicidal effect rating, CYPSE ([2]; Rate 0.2500 kg/ha): 0.0; herbicidal effect rating, MOOVA ([3]; Rate 0.0320 kg/ha): 8.0; herbicidal effect rating, SAGPY (Sagittaria pygmaea, L.; Rate 0.0320 kg/ha): 0.0; herbicidal effect rating ORYSAT ([4]; Rate 0.0320 kg/ha): 0.0; herbicidal effect rating ORYSAT ([4]; Rate 0.1250 kg/ha): 0.0; herbicidal effect rating ORYSAT ([4]; Rate 0.2500 kg/ha): 1.0; herbicidal effect rating ORYSAT ([4]; Rate 0.5000 kg/ha): 3.0
CCOC(=O)c1ccc(NC(=O)C(C)Oc2ccc(C)cc2-c2nsc3ccc(-n4c(=O)cc(C(F)(F)F)n(C)c4=O)cc23)cc1 (centres unmarked) [Example 541, Benzoic acid, p-{2-{{2-{5-[3,6-dihydro-3-methyl-2,6-dioxo-4-(trifluoromethyl)-1(2H)-pyrimidinyl]-1,2-benzisothiazol-3-yl}-p-tolyl}oxy}propionamido}-, ethyl ester]	0.0	0.0	4.0	6.0	3.0	4.0	6.0	9.0	0.0	0.0	0.0	9.0	9.0	9.0	9.0	0.0	0.0	0.0	0.0	0.0	herbicidal effect rating, CYPSE ([2]; Rate 0.2500 kg/ha): 0.0; herbicidal effect rating ORYSAT ([4]; Rate 0.1250 kg/ha): 0.0; herbicidal effect rating ORYSAT ([4]; Rate 0.2500 kg/ha): 0.0; herbicidal effect rating ORYSAT ([4]; Rate 0.5000 kg/ha): 2.0
Cc1ccc(OC(C)C(=O)c2ccc(C)c(C)c2)c(-c2nsc3ccc(-n4c(=O)cc(C(F)(F)F)n(C)c4=O)cc23)c1 (centres unmarked) [Example 542, 2,4(1H,3H)-Pyrimidinedione, 3-{3-{6-[1-(3,4-dimethylbenzoyl)ethoxy]-m-tolyl}-1,2-benzisothiazol-5-yl}-1-methyl-6-(trifluoromethyl)-]	2.7	4.3	8.0	9.0	0.0	2.0	4.0	9.0	0.0	0.0	0.0	9.0	9.0	9.0	9.0	0.0	0.0	0.0	9.0	0.0	herbicidal effect rating, ECHORC ([1]; Rate 0.0320 kg/ha): 1.7; herbicidal effect rating, CYPIR (Cyperus iria; Rate 0.0320 kg/ha): 0.0; herbicidal effect rating, CYPSE ([2]; Rate 0.0320 kg/ha): 0.0; herbicidal effect rating, MOOVA ([3]; Rate 0.0320 kg/ha): 7.0; herbicidal effect rating, SAGPY (Sagittaria pygmaea, L.; Rate 0.0320 kg/ha): 0.0; herbicidal effect rating ORYSAT ([4]; Rate 0.0320 kg/ha): 0.0; herbicidal effect rating ORYSAT ([4]; Rate 0.1250 kg/ha): 0.0; herbicidal effect rating ORYSAT ([4]; Rate 0.2500 kg/ha): 0.0; herbicidal effect rating ORYSAT ([4]; Rate 0.5000 kg/ha): 2.0
Cc1ccc(OCC(=O)c2ccc(OC(F)F)cc2)c(-c2nsc3ccc(-n4c(=O)cc(C(F)(F)F)n(C)c4=O)cc23)c1 [Example 543, 2,4(1H,3H)-Pyrimidinedione, 3-{3-{6-{[p-(difluoromethoxy)phenacyl]oxy}-m-tolyl}-1,2-benzisothiazol-5-yl}-1-methyl-6-(trifluoromethyl)-]	2.9	4.0	7.0	9.0	6.0	7.0	8.0	3.0	0.0	0.0	0.0	9.0	9.0	9.0	9.0	0.0	0.0	0.0	0.0	0.0	herbicidal effect rating, ECHORC ([1]; Rate 0.0320 kg/ha): 2.1; herbicidal effect rating, CYPIR (Cyperus iria; Rate 0.0320 kg/ha): 2.0; herbicidal effect rating, CYPSE ([2]; Rate 0.0320 kg/ha): 0.0; herbicidal effect rating, CYPSE ([2]; Rate 0.2500 kg/ha): 0.0; herbicidal effect rating, MOOVA ([3]; Rate 0.0320 kg/ha): 9.0; herbicidal effect rating, SAGPY (Sagittaria pygmaea, L.; Rate 0.0320 kg/ha): 0.0; herbicidal effect rating ORYSAT ([4]; Rate 0.0320 kg/ha): 0.0; herbicidal effect rating ORYSAT ([4]; Rate 0.1250 kg/ha): 1.0; herbicidal effect rating ORYSAT ([4]; Rate 0.2500 kg/ha): 2.0; herbicidal effect rating ORYSAT ([4]; Rate 0.5000 kg/ha): 2.0
